# Measured values reported in patent US10670605B2, “Cysteine reactive probes and uses thereof” (The Scripps Research Institute, priority 2015, dated 2020).
# What was measured:
# Assay in all cases: Competitive isoTOP-ABPP in situ (fragment-treated cells)
# Type in all cases: cell-based
# [1] = biological target: T1, cysteines in MDA-MB-231 and Ramos cells (Homo sapiens, UniProt P35611)
# T1 sequence (P35611 1-737): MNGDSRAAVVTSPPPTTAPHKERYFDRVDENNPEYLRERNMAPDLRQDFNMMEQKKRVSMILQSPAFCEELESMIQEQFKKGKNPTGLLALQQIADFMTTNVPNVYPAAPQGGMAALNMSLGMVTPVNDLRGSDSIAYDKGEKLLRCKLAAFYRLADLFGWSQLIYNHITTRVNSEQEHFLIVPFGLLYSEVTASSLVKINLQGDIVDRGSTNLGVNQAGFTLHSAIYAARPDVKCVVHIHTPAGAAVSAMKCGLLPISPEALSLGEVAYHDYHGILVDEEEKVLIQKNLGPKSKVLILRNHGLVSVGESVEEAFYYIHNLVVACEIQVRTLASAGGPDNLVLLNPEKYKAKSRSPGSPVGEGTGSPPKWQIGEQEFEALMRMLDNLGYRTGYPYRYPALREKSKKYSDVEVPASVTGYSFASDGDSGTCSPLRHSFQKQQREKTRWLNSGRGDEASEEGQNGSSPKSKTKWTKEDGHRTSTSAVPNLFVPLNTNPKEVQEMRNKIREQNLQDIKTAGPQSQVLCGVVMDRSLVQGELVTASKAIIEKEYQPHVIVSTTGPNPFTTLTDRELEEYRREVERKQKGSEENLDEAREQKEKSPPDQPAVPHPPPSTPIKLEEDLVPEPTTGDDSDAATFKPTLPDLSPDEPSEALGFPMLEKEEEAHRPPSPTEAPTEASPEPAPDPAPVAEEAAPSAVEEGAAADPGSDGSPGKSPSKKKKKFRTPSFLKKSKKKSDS
# [2] = biological target: T2, cysteines in MDA-MB-231 and Ramos cells (Homo sapiens, UniProt P42224)
# T2 sequence (P42224 1-750): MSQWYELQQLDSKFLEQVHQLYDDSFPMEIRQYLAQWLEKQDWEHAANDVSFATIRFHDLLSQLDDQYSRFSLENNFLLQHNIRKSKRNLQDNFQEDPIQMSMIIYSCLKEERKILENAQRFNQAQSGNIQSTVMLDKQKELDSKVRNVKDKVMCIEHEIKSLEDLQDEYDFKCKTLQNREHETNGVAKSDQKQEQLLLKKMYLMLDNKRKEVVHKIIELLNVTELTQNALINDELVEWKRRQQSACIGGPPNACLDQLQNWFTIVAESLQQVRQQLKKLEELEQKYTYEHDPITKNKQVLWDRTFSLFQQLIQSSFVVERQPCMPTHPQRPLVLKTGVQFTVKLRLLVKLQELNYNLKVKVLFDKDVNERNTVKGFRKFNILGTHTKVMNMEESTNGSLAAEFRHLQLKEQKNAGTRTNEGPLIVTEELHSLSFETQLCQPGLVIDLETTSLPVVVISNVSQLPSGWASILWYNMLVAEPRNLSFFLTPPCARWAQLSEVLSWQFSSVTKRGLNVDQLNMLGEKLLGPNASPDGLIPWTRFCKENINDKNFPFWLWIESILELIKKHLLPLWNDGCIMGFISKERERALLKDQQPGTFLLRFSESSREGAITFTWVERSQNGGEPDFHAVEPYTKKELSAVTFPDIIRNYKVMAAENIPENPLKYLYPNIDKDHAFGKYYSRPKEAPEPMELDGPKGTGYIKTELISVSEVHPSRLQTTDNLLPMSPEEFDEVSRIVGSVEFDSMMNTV
# [3] = biological target: T3, cysteines in MDA-MB-231 and Ramos cells (Homo sapiens, UniProt P52597)
# T3 sequence (P52597 1-415): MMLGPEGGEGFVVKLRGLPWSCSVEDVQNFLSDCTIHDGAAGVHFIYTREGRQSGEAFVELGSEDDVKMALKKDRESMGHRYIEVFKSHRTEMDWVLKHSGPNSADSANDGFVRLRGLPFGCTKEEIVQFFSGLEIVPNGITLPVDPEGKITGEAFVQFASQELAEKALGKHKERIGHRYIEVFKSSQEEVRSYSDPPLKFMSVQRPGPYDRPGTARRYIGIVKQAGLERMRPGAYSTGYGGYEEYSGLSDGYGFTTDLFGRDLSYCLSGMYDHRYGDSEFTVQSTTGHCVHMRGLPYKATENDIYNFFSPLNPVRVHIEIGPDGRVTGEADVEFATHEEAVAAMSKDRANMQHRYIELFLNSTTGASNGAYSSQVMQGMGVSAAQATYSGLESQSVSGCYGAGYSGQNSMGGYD
# [4] = biological target: cysteines in MDA-MB-231 and Ramos cells (Homo sapiens, UniProt Q16831)
# [5] = biological target: cysteines in MDA-MB-231 and Ramos cells (Homo sapiens, UniProt Q9BXW7)
# [6] = biological target: T4, cysteines in MDA-MB-231 and Ramos cells (Homo sapiens, UniProt Q9ULW0)
# T4 sequence (Q9ULW0 1-747): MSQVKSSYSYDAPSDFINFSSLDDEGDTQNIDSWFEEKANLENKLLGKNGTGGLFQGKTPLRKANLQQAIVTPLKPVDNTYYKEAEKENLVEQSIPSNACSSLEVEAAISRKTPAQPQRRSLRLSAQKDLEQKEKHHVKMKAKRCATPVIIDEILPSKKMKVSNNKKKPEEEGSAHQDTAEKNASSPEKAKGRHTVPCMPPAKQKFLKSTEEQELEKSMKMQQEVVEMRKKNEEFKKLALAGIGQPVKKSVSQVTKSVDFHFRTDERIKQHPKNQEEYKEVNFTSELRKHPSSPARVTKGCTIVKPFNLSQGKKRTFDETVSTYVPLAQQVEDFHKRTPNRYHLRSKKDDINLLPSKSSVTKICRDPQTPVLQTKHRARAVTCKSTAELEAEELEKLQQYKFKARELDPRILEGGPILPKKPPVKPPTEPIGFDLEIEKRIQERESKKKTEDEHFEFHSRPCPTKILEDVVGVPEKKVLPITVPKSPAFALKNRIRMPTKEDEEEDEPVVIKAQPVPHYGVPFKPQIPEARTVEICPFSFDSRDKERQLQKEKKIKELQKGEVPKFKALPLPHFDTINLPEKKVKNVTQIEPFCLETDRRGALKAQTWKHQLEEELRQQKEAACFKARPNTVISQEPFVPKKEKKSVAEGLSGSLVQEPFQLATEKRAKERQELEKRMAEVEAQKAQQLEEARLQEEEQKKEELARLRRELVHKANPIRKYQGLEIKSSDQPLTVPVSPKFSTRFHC
# [7] = biological target: cysteines in MDA-MB-231 and Ramos cells (Homo sapiens, UniProt Q7Z2W4)
# Sequence of cysteines in MDA-MB-231 and Ramos cells (Homo sapiens, UniProt Q7Z2W4) (Q7Z2W4 whole entry): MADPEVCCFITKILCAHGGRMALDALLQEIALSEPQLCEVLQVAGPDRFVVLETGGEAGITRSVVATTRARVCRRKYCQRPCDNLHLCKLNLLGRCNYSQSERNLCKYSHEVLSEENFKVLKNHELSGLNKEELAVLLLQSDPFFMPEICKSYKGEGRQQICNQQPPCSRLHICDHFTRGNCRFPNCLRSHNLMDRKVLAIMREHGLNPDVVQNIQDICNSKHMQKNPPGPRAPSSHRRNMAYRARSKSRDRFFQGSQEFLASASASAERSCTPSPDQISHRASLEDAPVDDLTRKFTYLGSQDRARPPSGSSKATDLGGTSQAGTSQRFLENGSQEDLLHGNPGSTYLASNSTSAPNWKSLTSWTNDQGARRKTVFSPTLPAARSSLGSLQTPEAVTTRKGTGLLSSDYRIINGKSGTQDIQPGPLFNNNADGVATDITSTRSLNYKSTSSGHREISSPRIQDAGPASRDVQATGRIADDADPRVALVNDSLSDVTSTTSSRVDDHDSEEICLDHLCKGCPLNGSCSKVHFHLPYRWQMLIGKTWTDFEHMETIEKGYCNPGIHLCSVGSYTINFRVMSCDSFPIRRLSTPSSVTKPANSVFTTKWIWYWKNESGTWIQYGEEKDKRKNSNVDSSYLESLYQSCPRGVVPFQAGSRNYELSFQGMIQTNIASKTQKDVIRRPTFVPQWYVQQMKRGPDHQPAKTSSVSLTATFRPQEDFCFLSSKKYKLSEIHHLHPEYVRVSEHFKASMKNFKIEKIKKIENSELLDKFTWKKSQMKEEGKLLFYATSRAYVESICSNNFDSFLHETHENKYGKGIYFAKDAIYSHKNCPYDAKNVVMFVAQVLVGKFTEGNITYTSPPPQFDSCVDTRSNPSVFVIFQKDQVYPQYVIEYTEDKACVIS
# Sequence of cysteines in MDA-MB-231 and Ramos cells (Homo sapiens, UniProt Q9BXW7) (Q9BXW7 24-423): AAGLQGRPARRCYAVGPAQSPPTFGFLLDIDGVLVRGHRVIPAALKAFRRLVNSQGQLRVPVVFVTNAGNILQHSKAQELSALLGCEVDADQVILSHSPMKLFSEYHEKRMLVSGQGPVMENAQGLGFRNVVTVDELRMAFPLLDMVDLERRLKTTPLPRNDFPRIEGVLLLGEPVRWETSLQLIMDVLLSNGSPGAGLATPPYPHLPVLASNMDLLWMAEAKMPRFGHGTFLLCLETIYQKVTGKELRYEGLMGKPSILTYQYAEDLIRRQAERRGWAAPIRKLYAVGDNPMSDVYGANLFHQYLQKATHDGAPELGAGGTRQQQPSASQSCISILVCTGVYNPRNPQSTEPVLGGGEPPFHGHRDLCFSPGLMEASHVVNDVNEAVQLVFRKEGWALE
# Sequence of cysteines in MDA-MB-231 and Ramos cells (Homo sapiens, UniProt Q16831) (Q16831 whole entry): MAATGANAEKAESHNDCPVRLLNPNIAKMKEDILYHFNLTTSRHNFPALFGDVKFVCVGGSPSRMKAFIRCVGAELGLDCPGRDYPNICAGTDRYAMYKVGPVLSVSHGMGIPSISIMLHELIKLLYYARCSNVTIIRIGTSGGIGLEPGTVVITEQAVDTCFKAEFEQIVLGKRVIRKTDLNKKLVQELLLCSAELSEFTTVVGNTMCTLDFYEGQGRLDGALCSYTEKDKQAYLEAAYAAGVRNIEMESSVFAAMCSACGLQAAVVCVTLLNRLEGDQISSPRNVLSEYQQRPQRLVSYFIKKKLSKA
"isoTOP-ABPP ratio P35611_C68 ([1]; 200 μM, insitu, 231)","isoTOP-ABPP ratio P52597_C267 ([3]; 200 μM, insitu, 231)","isoTOP-ABPP ratio Q16831_C162 ([4]; 200 μM, insitu, 231)","isoTOP-ABPP ratio Q7Z2W4_C645 ([7]; 200 μM, insitu, 231)","isoTOP-ABPP ratio Q9BXW7_C392 ([5]; 200 μM, insitu, 231)","isoTOP-ABPP ratio Q9ULW0_C536 ([6]; 200 μM, insitu, 231)","isoTOP-ABPP ratio P42224_C492 ([2]; 200 μM, insitu, 231)",SMILES,also measured
,,,,,,,COc1ccc2c(c1)CCCN2C(=O)CCl [compound 2],"isoTOP-ABPP reactivity P35611_C68 ADD1 ([1]; 200 μM, insitu, 231): 5.8; isoTOP-ABPP reactivity P42224_C492 STAT1 ([2]; 200 μM, insitu, 231): 16.9; isoTOP-ABPP reactivity P52597_C267 HNRNPF ([3]; 200 μM, insitu, 231): 4.2; isoTOP-ABPP reactivity Q16831_C162 UPP1 ([4]; 200 μM, insitu, 231): 1.2; isoTOP-ABPP reactivity Q9BXW7_C392 CECR5 ([5]; 200 μM, insitu, 231): 3.6; isoTOP-ABPP reactivity Q9ULW0_C536 TPX2 ([6]; 200 μM, insitu, 231): 20.0"
0.9,1.0,0.5,0.8,1.3,1.1,,CC(C)CCOCCNC(=O)CCl [compound 27],
3.6,6.8,0.9,3.3,5.1,20.0,1.0,O=C(CCl)NC(=O)NC12CC3CC(CC(C3)C1)C2 [compound 12],
0.8,1.5,1.6,0.9,1.6,0.9,0.7,O=C(CCl)NC12CC3CC(CC(C3)C1)C2 [compound 21],
1.9,2.5,7.3,3.8,20.0,17.6,20.0,O=C(CCl)N1CCN(S(=O)(=O)c2ccccc2F)CC1 [compound 10],"isoTOP-ABPP ratio P52597_C267 ([3]; 200 μM, insitu, ramos): 2.4"
0.9,0.8,0.8,0.9,1.0,1.2,0.6,Cc1ccc(C=C(C#N)C(=O)NCCN2CCOCC2)cc1 [compound 41],
,,,,,,,Cn1cc(S(=O)(=O)N2CCOCC2)cc1C(=O)NC(=O)CCl [compound 11],isoTOP-ABPP ratio P35611_C68 ([1]; 100 μM in situ 231): 0.9; isoTOP-ABPP ratio P42224_C492 ([2]; 100 μM in situ 231): 0.7; isoTOP-ABPP ratio P52597_C267 ([3]; 100 μM in situ 231): 1.0; isoTOP-ABPP ratio Q16831_C162 ([4]; 100 μM in situ 231): 0.8; isoTOP-ABPP ratio Q7Z2W4_C645 ([7]; 100 μM in situ 231): 1.0; isoTOP-ABPP ratio Q9BXW7_C392 ([5]; 100 μM in situ 231): 1.1; isoTOP-ABPP ratio Q9ULW0_C536 ([6]; 100 μM in situ 231): 1.4
1.7,,0.7,,1.0,1.0,0.8,COc1ccccc1OCCNC(=O)CCl [compound 28],
20.0,4.1,1.3,4.6,4.9,20.0,20.0,CC1CCc2ccccc2N1C(=O)CCl (centres unmarked) [compound 45],
1.0,1.3,1.1,1.6,1.1,1.4,2.4,O=C(CCl)Nc1cccc2ncccc12 [compound 51],
1.4,1.8,1.4,0.9,0.8,1.2,,C=CC(=O)Nc1cc(F)c(N2CCN(C(=O)OC(C)(C)C)CC2)c(F)c1 [compound 38],
,,,,,,,COc1cc2c(cc1OC)CN(C(=O)CCl)CC2 [compound 8],"isoTOP-ABPP reactivity P35611_C68 ADD1 ([1]; 200 μM, insitu, 231): 2.4; isoTOP-ABPP reactivity Q16831_C162 UPP1 ([4]; 200 μM, insitu, 231): 20.0; isoTOP-ABPP reactivity Q7Z2W4_C645 ZC3HAV1 ([7]; 200 μM, insitu, 231): 5.1; isoTOP-ABPP reactivity Q9BXW7_C392 CECR5 ([5]; 200 μM, insitu, 231): 3.2; isoTOP-ABPP reactivity Q9ULW0_C536 TPX2 ([6]; 200 μM, insitu, 231): 20.0"
,1.2,,,,,0.8,C=CC(=O)N(Cc1cccnc1)c1cc(C(F)(F)F)cc(C(F)(F)F)c1 [compound 31],"isoTOP-ABPP ratio P42224_C492 ([2]; 200 μM, insitu, ramos): 1.9; isoTOP-ABPP ratio P52597_C267 ([3]; 200 μM, insitu, ramos): 1.3"
1.1,1.2,1.0,1.3,2.0,1.5,1.0,O=C(CCl)NCCc1c[nH]c2ccccc12 [compound 13],"isoTOP-ABPP ratio P35611_C68 ([1]; 200 μM, insitu, ramos): 1.0; isoTOP-ABPP ratio P52597_C267 ([3]; 200 μM, insitu, ramos): 1.3; isoTOP-ABPP ratio Q7Z2W4_C645 ([7]; 200 μM, insitu, ramos): 0.9"
,,,,,,,O=C(CCl)N1CCC(Cc2ccccc2)CC1 [compound 9],"isoTOP-ABPP reactivity P35611_C68 ADD1 ([1]; 200 μM, insitu, 231): 4.3; isoTOP-ABPP reactivity P42224_C492 STAT1 ([2]; 200 μM, insitu, 231): 3.1; isoTOP-ABPP reactivity P52597_C267 HNRNPF ([3]; 200 μM, insitu, 231): 3.2; isoTOP-ABPP reactivity Q16831_C162 UPP1 ([4]; 200 μM, insitu, 231): 7.7; isoTOP-ABPP reactivity Q7Z2W4_C645 ZC3HAV1 ([7]; 200 μM, insitu, 231): 3.0; isoTOP-ABPP reactivity Q9BXW7_C392 CECR5 ([5]; 200 μM, insitu, 231): 1.5; isoTOP-ABPP reactivity Q9ULW0_C536 TPX2 ([6]; 200 μM, insitu, 231): 5.7"
,,,,,,,COc1ccc(C2CC(c3cccs3)=NN2C(=O)CCl)cc1 (centres unmarked) [compound 4],isoTOP-ABPP reactivity P35611_C68 ADD1 ([1]; 100 μM in situ 231): 4.3; isoTOP-ABPP reactivity P52597_C267 HNRNPF ([3]; 100 μM in situ 231): 20.0; isoTOP-ABPP reactivity Q16831_C162 UPP1 ([4]; 100 μM in situ 231): 1.0; isoTOP-ABPP reactivity Q7Z2W4_C645 ZC3HAV1 ([7]; 100 μM in situ 231): 4.4; isoTOP-ABPP reactivity Q9BXW7_C392 CECR5 ([5]; 100 μM in situ 231): 2.2; isoTOP-ABPP reactivity Q9ULW0_C536 TPX2 ([6]; 100 μM in situ 231): 20.0
,,,,,,,O=C(CCl)N1CCN(CC(=O)N2CCOCC2)CC1 [compound 29],"isoTOP-ABPP ratio P42224_C492 ([2]; 200 μM, insitu, ramos): 3.8; isoTOP-ABPP ratio P52597_C267 ([3]; 200 μM, insitu, ramos): 1.2; isoTOP-ABPP ratio Q7Z2W4_C645 ([7]; 200 μM, insitu, ramos): 1.6; isoTOP-ABPP ratio Q9BXW7_C392 ([5]; 200 μM, insitu, ramos): 1.5; isoTOP-ABPP ratio Q9ULW0_C536 ([6]; 200 μM, insitu, ramos): 1.8"
